The source of these data is ChEMBL document CHEMBL4390707, “Synthesis and comparison of substituted 1,2,3-dithiazole and 1,2,3-thiaselenazole as inhibitors of the feline immunodeficiency virus (FIV) nucleocapsid protein as a model for HIV infection” (Bioorg Med Chem Lett, 2019).

Structures are written as SMILES.

A short description of data set [1]: Cytotoxicity against cat CRFK cells measured after 24 hrs by MTT assay. The format is cell-based, Felis catus. A general note: Tetrazolium dyes change colour on reduction, which living cells bring about.
Data set [2] in a line: Cytotoxicity against cat FL-4 cells measured after 7 days by MTT assay. Type of data set: cell-based, Felis catus.
The nature of data set [3]: Inhibition of nucleocapsin protein in FIV infected in cat FL-4 cells assessed as reduction in viral RNA replication measured after 7 days by qRT-PCR analysis. The format is cell-based. Conditions: Feline immunodeficiency virus, FL-4, 168 h.
Data set [4] in a line: Therapeutic index, ratio of CC50 for cat FL-4 cells to EC50 for inhibition of nucleocapsin protein in FIV infected in cat FL-4 cells. Type of data set: toxicity, cell-based. Conditions: FL-4 cells (FIV infected for EC50), read-out: Ratio CC50/EC50.

Turning to `CCOC(=O)c1c2nssc-2c(Cl)c1Cl`, in data set [1], the CC50 (in general, the concentration at which the toxic effect on the cells reaches its halfway point) at 24 h was > 100 µM. Further, in data set [2], half-maximal cytotoxicity (CC50 at 168 h) was put at 3.5 µM. The EC50 – broadly, the concentration at which the effect is half-maximal – in data set [3] amounted to 0.31 µM. Moreover, the selectivity ratio in data set [4] worked out at 11.4.
The like results for `Clc1c2nssc-2c(Cl)c1Cl` were, in that order, 68 µM, 6.1 µM, 1.6 µM and 3.8.
The like results for `Clc1c2n[se]sc-2c(Cl)c1Cl` were, in that order, 62 µM, 6.5 µM, 1.2 µM and 5.4.
With `CCOC(=O)c1c2n[se]sc-2c(Cl)c1Cl`, the CC50 at 24 h in data set [1] is > 100 µM. Besides, the 50% cytotoxic concentration (CC50) at 168 h in data set [2] came to 5.1 µM. Moreover, in data set [3], the EC50 was determined as 0.082 µM. In addition, the selectivity ratio in data set [4] amounted to 61.9.
In the same order, the values of `Clc1c2ssnc-2c2ccccc12` are > 100 µM, 49 µM, 1.4 µM and 36.3.
The like results for `ClC1=C2SSN=C2c2ccccc2C(Cl)=C1Cl` were, in that order, > 100 µM, 9.3 µM, 3 µM and 3.1.
The like results for `N#Cc1c2nssc-2c(Cl)c1Cl` were, in that order, > 100 µM, 39 µM, 1.5 µM and 26.8.
`c1ccc(-c2c3s[se]nc-3c3ccccc23)cc1`: in data set [1], the CC50 at 24 h is 56 µM. Further, in data set [2], the midpoint of cytotoxicity, the CC50 at 168 h, lay at 50 µM. The EC50 in data set [3] is 0.26 µM. Also, in data set [4], the selectivity ratio was found to be 194.
In the same order, the values of `c1ccc(-c2c3ssnc-3c3ccccc23)cc1` are > 100 µM, > 100 µM, 25.7 µM and > 4.
The like results for `c1ccc2c(c1)N=C1SSN=C1O2` were, in that order, > 100 µM, 57 µM, 4 µM and 14.
The like results for `c1ccc2c(c1)N=C1S[Se]N=C1O2` were, in that order, > 100 µM, 5.8 µM, 0.24 µM and 24.
`Clc1c2s[se]nc-2c2ccccc12` had a cytotoxic concentration (CC50) at 24 h in data set [1] of 98 µM. For the same compound, the midpoint of cytotoxicity in data set [2], the CC50 at 168 h, lay at 5.7 µM. The 50% effective concentration (EC50) in data set [3] came out at 1.2 µM. In addition, in data set [4], the selectivity ratio is 4.6.
On to `ClC1=C2S[Se]N=C2c2ccccc2C(Cl)=C1Cl`, for which the CC50 at 24 h in data set [1] was > 100 µM. In data set [2], this compound had a CC50 at 168 h of 0.83 µM. For the same compound, in data set [3], the EC50 turned out to be 0.25 µM. Also, the selectivity ratio in data set [4] is 3.3.
In the same order, the values of `Cc1cn([C@H]2C[C@H](N=[N+]=[N-])[C@@H](CO)O2)c(=O)[nH]c1=O` [ZIDOVUDINE] are > 100 µM, > 100 µM, 2.7 µM and > 37.
The like results for `N#Cc1c2n[se]sc-2c(Cl)c1Cl` were, in that order, > 100 µM, 18 µM, 3.8 µM and 4.7.
